From patent US20090124643A1, “Use of a Cannabinoid CB1 Receptor Antagonist for Preparation of Drugs Useful for the Prevention and Treatment of Benign Prostatic Hypertrophy” (SANOFI-AVENTIS, priority 2006, published 2009)

Columns and labels:
testosterone-induced BPH = assay: Treatment of testosterone-induced BPH in rats; format: in vivo, rat; details: for Decrease in volume of total prostate / Decrease in volume of ventral prostate / Decrease in weight of total prostate / Decrease in weight of ventral prostate: % of the increase preinduced with testosterone
Method: Treatment of Testosterone-Induced BPH in Rats
Male rats are implanted with catheters and receive 18.75 mg per rat of testosterone, subcutaneously at D-4.
From day D0 to day D21, they receive rimonabant daily, at the dose of either 10 mg/kg per os, or of 30 mg/kg per os.
At day D22, the animals are sacrificed and their prostate is analyzed.
This decrease is evaluated as % of the increase preinduced with testosterone.

[1] = test system: BPH in spontaneously hypertensive rats; assay: Treatment of BPH in spontaneously hypertensive rats (SHR), qualitative histological study of the prostate lobes; format: in vivo, rat; details: SHR rats treated for 28 days, from 10 mg/kg onward
Method: Treatment of BPH in Spontaneously Hypertensive Rats
The spontaneously hypertensive rat (SHR) model as described by Golomb et al., J. Androl. (2000), 21(1), 58-64 and Matituahou et al., J. Androl. (2003) 24(2), 263-9 is used.
A qualitative histological study of the prostate lobes is carried out on untreated SHR rats and on rats treated for 28 days with 10 mg/kg or 30 mg/kg of rimonabant.

[2] = rimonabant 10 mg/kg/d per os, D0 to D21
[3] = rimonabant 30 mg/kg/d per os, D0 to D21

Structure (SMILES)	Increase in weight and volume of the total prostate and of the ventral prostate (testosterone-induced BPH; pretreatment with testosterone 18.75 mg per rat, subcutaneously at D-4)	Histology of the ventral prostate lobes [1]	Weight and volume of the prostate (testosterone-induced BPH; chronic treatment with rimonabant, 10 or 30 mg/kg per os daily, D0 to D21)	Decrease in volume of total prostate (testosterone-induced BPH; [2]) [%]	Decrease in volume of ventral prostate (testosterone-induced BPH; [2]) [%]	Decrease in weight of total prostate (testosterone-induced BPH; [2]) [%]	Decrease in weight of ventral prostate (testosterone-induced BPH; [2]) [%]	Decrease in volume of total prostate (testosterone-induced BPH; [3]) [%]	Decrease in volume of ventral prostate (testosterone-induced BPH; [3]) [%]	Decrease in weight of total prostate (testosterone-induced BPH; [3]) [%]	Decrease in weight of ventral prostate (testosterone-induced BPH; [3]) [%]
C[C@]12CC[C@H]3[C@@H](CCC4=CC(=O)CC[C@@]43C)[C@@H]1CC[C@@H]2O [testosterone]	approximately 35%										
Cc1c(C(=O)NN2CCCCC2)nn(-c2ccc(Cl)cc2Cl)c1-c1ccc(Cl)cc1 [Rimonabant, N-piperidino-5-(4-chlorophenyl)-1-(2,4-dichlorophenyl)-4-methylpyrazole-3-carboxamide]		the tissues are normal and non-hypertrophied	significant decrease	64	88	54	87	87	100	73	95
